Where two headings read alike, the source gives them in different places. Marks after values point to notes of the source that are not given here.
Assays:
JAK1 = details: human whole-blood assay; cited from earlier work
[1] = in humans; filgotinib unchanged, metabolite as such; no reference given; cited from earlier work
[2] = Effect of renal impairment; details: for AUC0–24 h / Ae0–24 h (amount excreted in the urine over 24 h) / CLR (renal clearance) / t½,λz (apparent terminal half-life) / R (metabolite-to-parent ratio, AUC0–24 h) / tmax: 100 mg QD; for AUC0–24 h / Ae0–24 h (amount excreted in the urine over 24 h) / CLR (renal clearance) / t½,λz (apparent terminal half-life) / R (metabolite-to-parent ratio, AUC0–24 h) / tmax / Cmax: day 10; for AUC0–24 h / Ae0–24 h (amount excreted in the urine over 24 h) / CLR (renal clearance) / t½,λz (apparent terminal half-life) / Cmax: arithmetic mean (CV%); for R (metabolite-to-parent ratio, AUC0–24 h): geometric mean (CV%); for tmax: median (min–max); for Cmax: filgotinib 100 mg QD 10 days, tablet, fasted
[3] = for AUC0–24 h / Ae0–24 h (amount excreted in the urine over 24 h) / CLR (renal clearance) / t½,λz (apparent terminal half-life) / R (metabolite-to-parent ratio, AUC0–24 h) / tmax: 100 mg QD; for AUC0–24 h / Ae0–24 h (amount excreted in the urine over 24 h) / CLR (renal clearance) / t½,λz (apparent terminal half-life) / R (metabolite-to-parent ratio, AUC0–24 h) / tmax / Cmax: day 10; for AUC0–24 h / Ae0–24 h (amount excreted in the urine over 24 h) / CLR (renal clearance) / t½,λz (apparent terminal half-life) / Cmax: arithmetic mean (CV%); for R (metabolite-to-parent ratio, AUC0–24 h): geometric mean (CV%); for tmax: median (min–max); for Cmax: filgotinib 100 mg QD 10 days, capsule, fed, N = 10
[4] = ≥75 years relative to 40–50 years, point estimate [90% CI]

For `Nc1nc2cccc(-c3ccc(CN4CCS(=O)(=O)CC4)cc3)n2n1` [Metabolite], the “Reduced potency versus filgotinib” value (JAK1) is listed as 19 fold, the “Fraction excreted in the urine” value [1] is listed as ≥ 50% and the “AUC0–24 h” value ([2]; mild RI) is listed as 30.1 (29.3) μg.h ml^–1. For the same molecule, the “Ae0–24 h (amount excreted in the urine over 24 h)” value ([2]; mild RI) was 35.7 (40.3) % dose, the “CLR (renal clearance)” value ([2]; mild RI) was 1.21 (42.1) l h^–1 and the “t½,λz (apparent terminal half-life)” value ([2]; mild RI) was 25.4 (24.8) h. For the same molecule, the “R (metabolite-to-parent ratio, AUC0–24 h)” value ([2]; mild RI) was 15.9 (22.0), the tmax ([2]; mild RI) was 3.3 (1.5–5) h and the “AUC0–24 h” value ([2]; moderate RI) was 42.7 (38.4) μg.h ml^–1. For the same molecule, the “Ae0–24 h (amount excreted in the urine over 24 h)” value ([2]; moderate RI) was 29.9 (24.1) % dose, the “CLR (renal clearance)” value ([2]; moderate RI) was 0.781 (47.8) l h^–1 and the “t½,λz (apparent terminal half-life)” value ([2]; moderate RI) was 31.7 (24.9) h. For the same molecule, the “R (metabolite-to-parent ratio, AUC0–24 h)” value ([2]; moderate RI) was 16.7 (35.8), the tmax ([2]; moderate RI) was 2.3 (0.5–5) h and the “AUC0–24 h” value ([2]; normal renal function) was 24.9 (31.7) μg.h ml^–1. For the same molecule, the “Ae0–24 h (amount excreted in the urine over 24 h)” value ([2]; normal renal function) was 37.4 (11.6) % dose, the “CLR (renal clearance)” value ([2]; normal renal function) was 1.59 (24.5) l h^–1 and the “t½,λz (apparent terminal half-life)” value ([2]; normal renal function) was 20.8 (17.1) h. For the same molecule, the “R (metabolite-to-parent ratio, AUC0–24 h)” value ([2]; normal renal function) was 13.8 (21.5), the tmax ([2]; normal renal function) was 3 (2–4) h and the “AUC0–24 h” value ([2]; severe RI) was 66.6 (18.5) μg.h ml^–1. For the same molecule, the “Ae0–24 h (amount excreted in the urine over 24 h)” value ([2]; severe RI) was 32.1 (9.36) % dose, the “CLR (renal clearance)” value ([2]; severe RI) was 0.488 (10.6) l h^–1 and the “t½,λz (apparent terminal half-life)” value ([2]; severe RI) was 43.6 (12.6) h. For the same molecule, the “R (metabolite-to-parent ratio, AUC0–24 h)” value ([2]; severe RI) was 26.0 (20.4), the tmax ([2]; severe RI) was 3 (3–4) h and the Cmax ([2]; mild RI, N = 6) was 1.54 (31.3) μg ml^–1. The Cmax ([2]; moderate RI, N = 6) was 2.35 (35.4) μg ml^–1, the Cmax ([2]; normal renal function, N = 9) was 1.63 (31.9) μg ml^–1 and the Cmax ([2]; severe RI, N = 3) was 3.43 (14.6) μg ml^–1. The “CLR drop compared with subjects with normal renal function” value ([2]; moderate RI vs normal renal function) was 51%, the “Steady-state plasma concentrations reached” value ([2]; moderate and severe RI) was 5 days and the “Steady-state plasma concentrations reached” value ([2]; normal renal function and mild RI) was 3 days. For the same molecule, the “CLR lower (drop) compared with subjects with normal renal function” value ([2]; severe RI vs normal renal function) was 69%, the “AUC0–24 h” value ([3]; age 40–50 years) was 29.4 (27.3) μg.h ml^–1 and the “Ae0–24 h (amount excreted in the urine over 24 h)” value ([3]; age 40–50 years) was 34.3 (22.3) ^b % dose. For the same molecule, the “CLR (renal clearance)” value ([3]; age 40–50 years) was 1.25 (19.3) ^b l h^–1, the “t½,λz (apparent terminal half-life)” value ([3]; age 40–50 years) was 17.8 (17.9) h and the “Ae0–24 h (amount excreted in the urine over 24 h)” value ([3]; age 40–50 years, listed as metabolite) was 34.3 % dose. For the same molecule, the “R (metabolite-to-parent ratio, AUC0–24 h)” value ([3]; age 40–50 years) was 18.8 (25.1), the tmax ([3]; age 40–50 years) was 4.0 (2.0–5.0) h and the “AUC0–24 h” value ([3]; age 65–74 years) was 34.2 (17.3) μg.h ml^–1. The “Ae0–24 h (amount excreted in the urine over 24 h)” value ([3]; age 65–74 years) was 37.4 (13.2) ^c % dose, the “CLR (renal clearance)” value ([3]; age 65–74 years) was 1.13 (20.9) ^c l h^–1 and the “t½,λz (apparent terminal half-life)” value ([3]; age 65–74 years) was 24.7 (23.3) h. The “R (metabolite-to-parent ratio, AUC0–24 h)” value ([3]; age 65–74 years) was 19.4 (22.0), the tmax ([3]; age 65–74 years) was 3.0 (3.0–5.0) h and the “AUC0–24 h” value ([3]; age ≥75 years) was 40.9 (21.9) μg.h ml^–1. For the same molecule, the “Ae0–24 h (amount excreted in the urine over 24 h)” value ([3]; age ≥75 years) was 37.6 (15.4) ^b % dose, the “CLR (renal clearance)” value ([3]; age ≥75 years) was 0.926 (29.5) ^b l h^–1 and the “t½,λz (apparent terminal half-life)” value ([3]; age ≥75 years) was 23.5 (21.2) h. The “Ae0–24 h (amount excreted in the urine over 24 h)” value ([3]; age ≥75 years, listed as metabolite) was 37.6 % dose, the “R (metabolite-to-parent ratio, AUC0–24 h)” value ([3]; age ≥75 years) was 18.4 (16.4) and the tmax ([3]; age ≥75 years) was 5.0 (3.0–5.0) h. The Cmax ([3]; age 40–50 years) was 1.69 (26.5) μg ml^–1, the Cmax ([3]; age 65–74 years) was 1.90 (15.5) μg ml^–1 and the Cmax ([3]; age ≥75 years) was 2.20 (19.4) μg ml^–1. For the same molecule, the “Apparent elimination half-life across age groups” value ([3]; mean over the three age groups) was “approximately 22 h”, the “Time to steady state” value ([3]; predose (trough) concentrations, regardless of the age group) was ≤ 4 dosing days and the “Fold-change in steady-state AUC0–24 h” value [3, 4] was 1.33 fold. The “Fold-change in steady-state Cmax” value [3, 4] was 1.25 fold.

— paper PMC6256002 (British Journal of Clinical Pharmacology, 2018)
